Reference: US20200216563A1, “HDAC6 AND PROTEIN AGGREGATION” (Friedrich Miescher Institute for Biomedical Research, priority 2017, published 2020)

Columns and labels:
DDX3X-K118Ac = test: DDX3X acetylation in HEK293T cells expressing CBP or p300 (immunoprecipitation and immunoblotting); assay type: cell-based, human; settings: for DDX3X-K118Ac signal after treating the cells with HDAC inhibitors: HEK293T cells transiently expressing CBP, DDX3X-K118Ac-specific antibody
Experimental: HEK293T cells were transfected with Lipofectamine 2000 (Life Technologies) or FuGENE HD (Promega), and MEF cells were transfected with 4D-Nucleofector™ System (Lonza), following manufacturer's protocol.
Cells were washed by ice-cold PBS and lysed in Triton lysis buffer (50 mM Tris-HCl, pH8.0, 150 mM sodium chloride, 1 mM EDTA, 0.1% TritonX-100 and Complete EDTA-free protease inhibitors (Roche)) for analysis. To detect protein acetylation, 0.2 μM Trichostatin A and 5 mM nicotinamide was added to PBS for wash, and 10 μM Trichostatin A, 10 mM nicotinamide, 50 mM sodium butyrate were added to Triton lysis buffer. To detect protein phosphorylation, Pierce Protease and Phosphatase Inhibitor Mini Tablets (Thermo scientific) were added to Triton lysis buffer instead of Complete EDTA-free protease inhibitors. Five hundred μg protein lysates were incubated with the specific antibody for overnight at 4° C., and immunoprecipitated with Dynabeads ProteinG (invitrogen) for 1 h at 4° C. Samples were boiled for 10 min in SDS-PAGE sample buffer, and separated with 4-12% NuPAGE gels (invitrogen). […] For inhibition of HDACs in cells, concentration of each HDAC inhibitor was as described in {Scholz, 2015 #851}.
(§1) To investigate whether DDX3X-K118Ac is a direct target site of HDAC6, the inventors performed a biochemical assay using purified components. […] Next, they tested the acetylation status of DDX3X in cells. It has been shown that the stoichiometry of acetylation is generally low {Weinert, 2014 #452}, making it difficult to detect. The inventors therefore attempted to enhance the level of acetylation by expressing different HATs. To test which HAT(s) can act on DDX3X, expression vectors for PCAF, CBP, Tip60 or p300 were individually transfected into HEK293T cells and cellular extracts were analyzed by immunoprecipitation and immunoblotting.
Different deacetylases often redundantly target the same lysine acetylation site on a target protein. […] To test whether the DDX3X-K118 deacetylation is specific for HDAC6, the inventors transiently expressed CBP in HEK293T cells and assessed the DDX3X-K118Ac signal after treating the cells with several HDAC inhibitors.

DDX3X-K118 acetylation = DDX3X-K118 acetylation under arsenite-induced oxidative stress (immunoblotting); assay type: cell-based
[1] = target: T1, Danio rerio HDAC6 CD1-CD2 (a.a.40-831) (Danio rerio, UniProt F8W4B7); test: In vitro HDAC6 deacetylation assay with DDX3X-K118 acetylated peptide; assay type: biochemical; settings: 1 μM Trichostatin A, 3 hours, 37° C., HPLC UV 214 nm
T1 construct: Danio rerio HDAC6 CD1-CD2 (a.a.40-831) was expressed in Sf9 insect cells; made in house; host or cells: Sf9 insect cells
T1 sequence (F8W4B7 40-831): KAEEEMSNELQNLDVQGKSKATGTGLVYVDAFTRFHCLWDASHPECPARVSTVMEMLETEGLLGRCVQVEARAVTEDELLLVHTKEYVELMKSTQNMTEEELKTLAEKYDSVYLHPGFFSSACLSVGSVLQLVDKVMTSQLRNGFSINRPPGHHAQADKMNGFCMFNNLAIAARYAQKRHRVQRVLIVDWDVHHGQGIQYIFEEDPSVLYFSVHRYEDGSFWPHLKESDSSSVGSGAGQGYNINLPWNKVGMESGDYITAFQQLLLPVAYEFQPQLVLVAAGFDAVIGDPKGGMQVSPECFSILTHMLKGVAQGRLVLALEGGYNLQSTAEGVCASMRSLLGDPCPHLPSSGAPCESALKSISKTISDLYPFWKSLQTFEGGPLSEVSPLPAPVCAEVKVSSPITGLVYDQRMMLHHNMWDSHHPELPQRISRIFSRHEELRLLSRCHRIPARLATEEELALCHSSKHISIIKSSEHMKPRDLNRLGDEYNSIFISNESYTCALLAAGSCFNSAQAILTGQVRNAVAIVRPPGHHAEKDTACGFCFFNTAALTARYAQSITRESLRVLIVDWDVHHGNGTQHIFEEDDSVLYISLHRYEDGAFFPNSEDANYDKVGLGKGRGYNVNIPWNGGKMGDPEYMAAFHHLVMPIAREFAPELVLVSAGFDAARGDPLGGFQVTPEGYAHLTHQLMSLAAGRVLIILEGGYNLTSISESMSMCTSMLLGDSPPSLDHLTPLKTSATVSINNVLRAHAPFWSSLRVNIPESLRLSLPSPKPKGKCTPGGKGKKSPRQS
Text: as §1

Compound | DDX3X-K118Ac signal after treating the cells with HDAC inhibitors (DDX3X-K118Ac) | other results
CCCCOc1ccc(CC(=O)NO)cc1 [Bufexamac] | increased | –
CCCC(=O)[O-].[Na+] [sodium butyrate] | neither nicotinamide, a sirtuin deacetylase inhibitor, nor sodium butyrate, a class I HDAC inhibitor, altered the acetylation status | –
O=C(CCCCCCC(=O)Nc1ccc([C@H]2O[C@@H](CSc3nc(-c4ccccc4)c(-c4ccccc4)o3)C[C@@H](c3ccc(CO)cc3)O2)cc1)NO [Tubacin] | increased | acetylation level of endogenous or overexpressed DDX3X (DDX3X-K118Ac; HEK293T cells transfected with CBP or p300 (with or without DDX3X construct), treatment of the cells with inhibitor): increased even further; DDX3X-K118 acetylation after arsenite treatment plus HDAC6 inhibitor (DDX3X-K118 acetylation; WT cells treated with arsenite and also with Tubacin): further increased
sodium arsenite | – | DDX3X-K118 acetylation after arsenite treatment (DDX3X-K118 acetylation): increased
CN1CCc2c(c3ccccc3n2Cc2ccc(C(=O)NO)cc2)C1 [Tubastatin A] | increased | –
NC(=O)c1cccnc1 [nicotinamide] | neither nicotinamide, a sirtuin deacetylase inhibitor, nor sodium butyrate, a class I HDAC inhibitor, altered the acetylation status | –
CC(/C=C/C(=O)NO)=C\[C@@H](C)C(=O)c1ccc(N(C)C)cc1 [Trichostatin A] | – | deacetylation of the DDX3X-K118Ac peptide by purified tandem HDAC6 catalytic domains [1]: inhibited
